Assay results taken from ChEMBL document CHEMBL1130278, “Synthesis and structure-activity relationships of 3,7-dimethyl-1-propargylxanthine derivatives, A2A-selective adenosine receptor antagonists” (J Med Chem, 1997).

Key:
Adenosine receptor A1 [1] = molecular target: T1, Adenosine receptor A1 (Rattus norvegicus, UniProt P25099); experiment: Ability to inhibit binding of [3H]CHA to adenosine A1 receptor in rat brain cortical membranes.; format: cell membranes, Membrane
T1 sequence (P25099 whole entry): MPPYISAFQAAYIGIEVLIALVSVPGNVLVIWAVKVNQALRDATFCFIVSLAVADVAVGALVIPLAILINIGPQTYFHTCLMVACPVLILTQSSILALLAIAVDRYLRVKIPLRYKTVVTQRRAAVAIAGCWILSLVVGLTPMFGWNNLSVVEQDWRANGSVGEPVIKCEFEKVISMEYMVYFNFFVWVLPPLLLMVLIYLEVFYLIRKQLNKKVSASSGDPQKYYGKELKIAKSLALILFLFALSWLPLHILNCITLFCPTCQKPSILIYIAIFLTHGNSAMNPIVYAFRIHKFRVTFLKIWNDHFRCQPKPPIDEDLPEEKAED

Adenosine receptor A2a [2] = molecular target: T2, Adenosine receptor A2a (Rattus norvegicus, UniProt P30543)
Description: Ability to inhibit binding of [3H]-CGS- 21680 to adenosine A2A receptor in rat brain striatal membranes.

Adenosine receptor A2a [3] = molecular target: T2, Adenosine receptor A2a; remark: listed apart in the source
Description: Ability to inhibit binding of [3H]NECA to Adenosine A2A receptor in rat brain striatal membranes

Adenosine receptor A2b = molecular target: T3, Adenosine receptor A2b (Homo sapiens, UniProt P29275); experiment: Binding affinity for human Adenosine A2B receptor at 10 uM; IA = Inactive
T3 sequence (P29275 whole entry): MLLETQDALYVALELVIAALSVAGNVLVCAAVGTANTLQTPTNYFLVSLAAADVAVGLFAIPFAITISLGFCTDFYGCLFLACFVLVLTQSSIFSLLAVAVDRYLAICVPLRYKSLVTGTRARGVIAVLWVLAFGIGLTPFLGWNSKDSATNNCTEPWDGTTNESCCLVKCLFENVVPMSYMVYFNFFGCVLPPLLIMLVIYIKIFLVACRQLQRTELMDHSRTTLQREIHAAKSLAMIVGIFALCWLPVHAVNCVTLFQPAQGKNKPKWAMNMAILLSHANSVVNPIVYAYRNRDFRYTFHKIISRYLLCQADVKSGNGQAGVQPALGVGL

Adenosine receptor A3 [4] = molecular target: T4, Adenosine receptor A3 (Homo sapiens, UniProt P0DMS8); experiment: Binding affinity for human Adenosine A3 receptor at 10 uM; IA = Inactive
T4 sequence (P0DMS8 whole entry): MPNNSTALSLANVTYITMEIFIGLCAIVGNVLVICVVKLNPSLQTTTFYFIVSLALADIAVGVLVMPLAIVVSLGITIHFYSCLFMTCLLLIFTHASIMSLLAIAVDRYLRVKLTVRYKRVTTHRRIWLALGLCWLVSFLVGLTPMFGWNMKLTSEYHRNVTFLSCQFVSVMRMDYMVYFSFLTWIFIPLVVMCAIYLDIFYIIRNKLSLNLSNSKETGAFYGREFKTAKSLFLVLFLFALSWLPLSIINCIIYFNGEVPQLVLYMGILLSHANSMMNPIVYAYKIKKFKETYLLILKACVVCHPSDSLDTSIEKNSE

Adenosine receptor A1 [5] = molecular target: T1, Adenosine receptor A1; experiment: Ability to inhibit binding of [3H]R-PIA to Adenosine A1 receptor in rat brain cortical membranes; format: cell membranes, Membrane
Adenosine receptor A3 [6] = molecular target: T5, Adenosine receptor A3 (Rattus norvegicus, UniProt P28647); experiment: Inhibitory activity against rat adenosine A3 receptor; inactive up to 10 uM concentration; IA = Inactive
T5 sequence (P28647 whole entry): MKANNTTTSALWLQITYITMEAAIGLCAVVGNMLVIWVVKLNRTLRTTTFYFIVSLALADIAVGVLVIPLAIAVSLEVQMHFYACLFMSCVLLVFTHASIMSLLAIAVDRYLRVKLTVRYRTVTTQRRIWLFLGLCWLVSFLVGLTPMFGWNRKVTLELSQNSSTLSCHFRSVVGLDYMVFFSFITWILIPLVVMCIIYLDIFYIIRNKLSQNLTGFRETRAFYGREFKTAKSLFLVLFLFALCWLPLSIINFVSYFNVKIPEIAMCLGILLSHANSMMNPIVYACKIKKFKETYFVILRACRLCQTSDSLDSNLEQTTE

[7] = molecular target: T6, Adenosine receptor A1 (Rattus norvegicus) (UniProt P25099); experiment: Inhibition of [3H]CHA binding to Adenosine A1 receptor of rat brain cortical membranes; format: cell membranes; details: Membrane, concentration not given here
T6 sequence (whole entry): T1 sequence (P25099 whole entry)

T2 sequence (P30543 whole entry): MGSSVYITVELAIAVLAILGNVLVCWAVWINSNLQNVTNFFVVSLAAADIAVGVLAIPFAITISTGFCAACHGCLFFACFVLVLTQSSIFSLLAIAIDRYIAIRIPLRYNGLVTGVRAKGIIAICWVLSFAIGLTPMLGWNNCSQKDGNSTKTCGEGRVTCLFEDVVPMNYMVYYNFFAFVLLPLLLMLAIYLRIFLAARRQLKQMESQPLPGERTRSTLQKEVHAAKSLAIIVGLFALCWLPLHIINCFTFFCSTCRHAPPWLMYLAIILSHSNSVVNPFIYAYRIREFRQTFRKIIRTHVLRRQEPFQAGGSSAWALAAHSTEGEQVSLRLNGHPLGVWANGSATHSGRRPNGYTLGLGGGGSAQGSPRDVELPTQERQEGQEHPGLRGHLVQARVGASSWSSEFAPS

SMILES	Ki (Adenosine receptor A1 [1])	Ki (Adenosine receptor A2a [2])	also measured
CC(C)Cn1c(=O)n(C)c(=O)c2c1nc(-c1ccccc1)n2C	4400 nM	14000 nM	
C#CCn1c(=O)c2[nH]cnc2n(C)c1=O			Ki (Adenosine receptor A2a [3]): 4800 nM
COc1ccc(/C=C/c2nc3c(c(=O)n(C)c(=O)n3C)n2C)cc1OC	9600 nM	18 nM	
C#CCn1c(=O)c2c(nc(/C=C/c3cccc(Br)c3)n2C)n(C)c1=O	1200 nM	8.2 nM	Ki (Adenosine receptor A2b): Not Active; Ki (Adenosine receptor A3 [4]): Not Active
C#CCn1c(=O)c2c(nc(C3CCCCC3)n2C)n(C)c1=O	2800 nM	4500 nM	
C#CCn1c(=O)c2c(nc(/C=C/c3cccc(Cl)c3)n2C)n(C)c1=O	1300 nM	13 nM	Ki (Adenosine receptor A1 [5]): 2500 nM; Ki (Adenosine receptor A2a [3]): 47 nM
C#CCn1c(=O)c2c(ncn2C)n(C)c1=O	12000 nM	8600 nM	
C#CCn1c(=O)[nH]c2[nH]c(/C=C/c3ccccc3)nc2c1=O	1300 nM	310 nM	Ki (Adenosine receptor A1 [5]): 2100 nM; Ki (Adenosine receptor A2a [3]): 1900 nM
C#CCn1c(=O)c2c(nc(/C=C/c3cccc(Cl)c3)n2C)n(CCC)c1=O	102 nM	5.1 nM	
C#CCn1c(=O)c2[nH]c(/C=C/c3ccc4c(c3)OCO4)nc2n(C)c1=O	840 nM	170 nM	
C#CCn1c(=O)c2c(nc(/C=C/c3cccc(Cl)c3)n2CC#C)n(C)c1=O	200 nM	61 nM	
C#CCn1c(=O)c2c(nc(/C=C/c3cccc(Cl)c3)n2C)n(Cc2ccccc2)c1=O	2300 nM	68 nM	
C#CCn1c(=O)c2c(nc(/C=C/c3ccc4c(c3)OCO4)n2C)n(C)c1=O	1500 nM	35 nM	
C#CCn1c(=O)c2c(nc(/C=C/c3cccs3)n2C)n(C)c1=O	4100 nM	340 nM	
Cn1c(=O)c2c(nc(-c3ccccc3)n2C)n(C)c1=O	33000 nM	19000 nM	Ki (Adenosine receptor A2a [3]): 25000 nM
C#CCn1c(=O)[nH]c2nc(-c3cccs3)[nH]c2c1=O	180 nM	560 nM	Ki (Adenosine receptor A1 [5]): 120 nM; Ki (Adenosine receptor A2a [3]): 5100 nM
C#CCn1c(=O)c2c(nc(/C=C/c3ccsc3)n2C)n(C)c1=O	750 nM	24 nM	
Cn1c(=O)c2c(nc(/C=C/c3cccc(Cl)c3)n2C)n(C)c1=O			Ki (Adenosine receptor A3 [6]): Not Active; inhibition [7]: 17%
C#CCn1c(=O)c2c(nc(/C=C/c3ccc(OC)c(OC)c3)n2C)n(C)c1=O	2500 nM	15 nM	
C#CCn1c(=O)c2[nH]c(/C=C/c3cccc(Cl)c3)nc2n(C)c1=O			Ki (Adenosine receptor A1 [5]): 250 nM; Ki (Adenosine receptor A2a [3]): 410 nM
C#CCn1c(=O)c2c(nc(-c3ccccc3)n2C)n(C)c1=O	3200 nM	3300 nM	Ki (Adenosine receptor A2a [3]): 6400 nM

The next lines start with results.

Ki (Adenosine receptor A1 [1])	Ki (Adenosine receptor A2a [2])	SMILES	also measured
240 nM	15 nM	C#CCn1c(=O)c2c(nc(/C=C/c3cccc(Cl)c3)n2C)n(CC(C)C)c1=O	
83 nM	46 nM	C#CCn1c(=O)c2[nH]c(/C=C/c3cccc(Cl)c3)nc2n(CC(C)C)c1=O	
1100 nM	27 nM	C#CCn1c(=O)c2c(nc(/C=C/c3ccccc3)n2C)n(C)c1=O	Ki (Adenosine receptor A1 [5]): 2700 nM; Ki (Adenosine receptor A2a [3]): 140 nM
260 nM		CCCn1c(=O)c2c(nc(/C=C/c3ccc(OC)c(OC)c3)n2C)n(CCC)c1=O	
540 nM	31 nM	CCCn1c(=O)c2c(nc(/C=C/c3cccc(Cl)c3)n2C)n(C)c1=O	
1900 nM	250 nM	C#CCn1c(=O)c2c(nc(/C=C/c3ccco3)n2C)n(C)c1=O	
2800 nM	3500 nM	C#CCn1c(-c2ccccc2)nc2c1c(=O)n(C)c(=O)n2CC(C)C	
9200 nM	63 nM	C=CCn1c(=O)c2c(nc(/C=C/c3ccccc3)n2C)n(C)c1=O	
950 nM	1800 nM	C#CCn1c(=O)c2c(nc(-c3cccs3)n2C)n(C)c1=O	
860 nM	880 nM	C#CCn1c(=O)c2[nH]cnc2n(Cc2ccccc2)c1=O	
